Results on ten compounds are retold here after ChEMBL document CHEMBL3400076, “Three-dimensional rational approach to the discovery of potent substituted cyclopropyl urea soluble epoxide hydrolase inhibitors” (Bioorg Med Chem Lett, 2015).

Structures are written as SMILES.

A word on the IC50: it is the point on the concentration scale where inhibition reaches its midpoint.

Assay [1] concerns the target T1, Bifunctional epoxide hydrolase 2 (Rattus norvegicus, UniProt P80299).
T1 sequence (P80299 whole entry): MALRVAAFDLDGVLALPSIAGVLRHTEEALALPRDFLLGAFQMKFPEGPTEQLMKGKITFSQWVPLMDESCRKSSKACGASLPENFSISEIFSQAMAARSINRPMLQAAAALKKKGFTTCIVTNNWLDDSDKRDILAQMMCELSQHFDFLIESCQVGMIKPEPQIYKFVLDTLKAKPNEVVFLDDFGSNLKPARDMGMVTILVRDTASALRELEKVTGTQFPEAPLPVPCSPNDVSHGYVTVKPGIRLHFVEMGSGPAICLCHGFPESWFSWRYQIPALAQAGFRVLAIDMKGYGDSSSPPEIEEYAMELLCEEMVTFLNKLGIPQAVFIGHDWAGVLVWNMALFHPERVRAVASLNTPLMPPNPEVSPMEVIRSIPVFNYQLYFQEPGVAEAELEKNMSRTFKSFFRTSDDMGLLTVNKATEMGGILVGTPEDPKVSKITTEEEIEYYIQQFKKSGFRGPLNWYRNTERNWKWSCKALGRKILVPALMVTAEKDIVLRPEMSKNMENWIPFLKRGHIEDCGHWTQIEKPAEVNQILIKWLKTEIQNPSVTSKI
Put plainly: Inhibition of recombinant rat soluble epoxide hydrolase assessed as increase in fluorescence intensity by fluorescence plate reader.

Assay [2] has as its target T2, Bifunctional epoxide hydrolase 2 (Homo sapiens, UniProt P34913).
T2 sequence (P34913 whole entry): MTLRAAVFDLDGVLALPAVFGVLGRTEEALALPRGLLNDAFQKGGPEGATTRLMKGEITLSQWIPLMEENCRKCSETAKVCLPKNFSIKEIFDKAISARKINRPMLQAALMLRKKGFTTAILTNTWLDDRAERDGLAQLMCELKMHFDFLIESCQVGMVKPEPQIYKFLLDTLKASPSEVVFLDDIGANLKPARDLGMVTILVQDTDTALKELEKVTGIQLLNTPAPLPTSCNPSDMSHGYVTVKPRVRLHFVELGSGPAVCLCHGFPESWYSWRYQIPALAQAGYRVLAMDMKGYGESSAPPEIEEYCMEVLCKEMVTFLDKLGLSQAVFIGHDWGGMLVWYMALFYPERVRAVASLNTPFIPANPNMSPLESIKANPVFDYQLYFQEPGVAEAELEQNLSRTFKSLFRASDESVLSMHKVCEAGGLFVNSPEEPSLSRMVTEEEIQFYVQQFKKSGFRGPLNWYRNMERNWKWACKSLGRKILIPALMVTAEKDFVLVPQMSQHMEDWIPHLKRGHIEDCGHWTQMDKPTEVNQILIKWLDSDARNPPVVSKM
In words: Inhibition of recombinant human soluble epoxide hydrolase assessed as increase in fluorescence intensity by fluorescence plate reader.

Turning to `O=C(O)CCc1ccc(OC2CCN(C(=O)N[C@@H]3[C@@H](c4ccccc4)[C@H]3c3ccccc3)CC2)cc1`, the IC50 is 3.9 nM in assay [1] and 2.3 nM in assay [2].

Turning to `O=C(O)CCc1ccc(OC2CCN(C(=O)N[C@@H]3[C@@H](c4ccc(F)cc4)[C@H]3c3ccc(F)cc3)CC2)cc1`, the IC50 in assay [1] came to 3.2 nM; in assay [2], 2.1 nM.

`O=C(N[C@@H]1[C@@H](c2ccccc2)[C@H]1c1ccccc1)N1CCCCC1`: the IC50 was determined as 0.2 nM in assay [1] and 1.8 nM in assay [2].

As to `CN1CCN(C(=O)N[C@@H]2[C@@H](c3ccccc3)[C@H]2c2ccccc2)CC1`, the IC50 amounted to 27.7 nM in assay [1] and 14.4 nM in assay [2].

With `CS(=O)(=O)N[C@@H]1CCCN(C(=O)N[C@@H]2[C@@H](c3ccccc3)[C@H]2c2ccccc2)C1` (mixture of isomers), the IC50 in assay [1] was found to be 0.8 nM; in assay [2], 1.4 nM.

For `O=C(N[C@@H]1[C@@H](c2ccccc2)[C@H]1c1ccccc1)N1CCC[C@@H](NS(=O)(=O)c2ccc(F)cc2)C1` (mixture of isomers), the half-maximal inhibitory concentration (IC50) in assay [1] worked out at 0.2 nM; in assay [2] it was 0.7 nM.

`O=C(O)CCc1ccc(OC2CCN(C(=O)N[C@H]3C[C@@H]3c3ccccc3)CC2)cc1` (racemic): the IC50 in assay [1] was 55.6 nM; in assay [2], 19.1 nM.

As to `CC1(C)[C@H](NC(=O)N2CCC(Oc3ccc(CCC(=O)O)cc3)CC2)[C@H]1c1ccccc1` (racemic), the IC50 in assay [1] and in assay [2] was over 100 nM in each case.

For the compound `C[C@H]1[C@H](NC(=O)N2CCC(Oc3ccc(CCC(=O)O)cc3)CC2)[C@H]1c1ccccc1` (racemic), the IC50 in assay [1] was 11.7 nM; in assay [2], 12 nM.

With `C[C@@H]1[C@H](NC(=O)N2CCC(Oc3ccc(CCC(=O)O)cc3)CC2)[C@H]1c1ccccc1` (racemic), the half-maximal inhibitory concentration (IC50) was over 100 nM in assay [1] and 75.7 nM in assay [2].
